This note sets out measurements from patent publication US4178442A, “Novel cinnamoyles piperazines and homopiperazines, the method of preparing them and their application in therapeutics” (Delalande S. A., priority 1977, dated 1979).

A short description of one data set: in vivo. Particulars: iv; for LD50: read-out: Toxicity: LD50; for mortality: read-out: Toxicity (Mortality). From the text:
*LD50 or percentage of mortality which is given between brackets

For another data set, the system named is anaesthetized dog. The data set is described as follows: Antiangorous activity on anaesthetized dog: consumption of oxygen in the left ventricule and cardiac effort (KATZ's index). It is filed as in vivo. Summed up: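 Katz index taken as mean arterial pressure multiplied by ECG (D2) heart rate, and myocardial O2 use as coronary sinus flow via modified Morawitz cannula times coronary arteriovenous O2 difference. Animals: pentobarbital-anaesthetized dogs (30 mg/kg i.v.), test compounds infused slowly intravenously.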

[1] abbreviates: Canis lupus familiaris, iv, 2.5 mg/kg i.v. slow perfusion, read-out: Diminution in consumption of O2.
Where [2] appears, read: Canis lupus familiaris, iv, 2.5 mg/kg i.v. slow perfusion, read-out: Diminution in the cardiac effort (IK).
Setting [3] is: Canis lupus familiaris, iv, 2.3 mg/kg i.v. slow perfusion, read-out: Diminution in consumption of O2.
Where [4] appears, read: Canis lupus familiaris, iv, 2.3 mg/kg i.v. slow perfusion, read-out: Diminution in the cardiac effort (IK).

Where two headings read alike, the source gives them in different places.

The LD50 is the dose expected to kill half of the subjects tested. On to `COc1cc(/C=C/C(=O)N2CCN(CC(O)COc3ccc(NC(=O)NC4CCCCC4)c4c3OCCO4)CC2)cc(OC)c1OC` (stereo not shown) [770 081], for which the LD50 in “in vivo” stood at 148 mg/kg. Besides, in the data set on anaesthetized dog (0.14 mg/kg i.v. slow perfusion), the “Diminution in consumption of O2: in time” value was 53 min and the “Diminution in the cardiac effort (IK): in time” value (from here on “Diminution in the cardiac effort”) stood at 15 min. Besides, in the data set with anaesthetized dog (Canis lupus familiaris, iv, 0.14 mg/kg i.v. slow perfusion, read-out: Diminution in consumption of O2), the inhibition in vivo at 0.14 mg/kg was 58%. Further, in the data set with anaesthetized dog (Canis lupus familiaris, iv, 0.14 mg/kg i.v. slow perfusion, read-out: Diminution in the cardiac effort (IK)), the inhibition in vivo at 0.14 mg/kg was 20%.

Regarding `COc1cc(/C=C/C(=O)N2CCN(CC(O)COc3ccc(SC)cc3)CC2)cc(OC)c1OC` (stereo not shown) [760 507], the LD50 in the data set “in vivo” turned out to be 185 mg/kg. In addition, in the data set on anaesthetized dog (4.6 mg/kg i.v. slow perfusion), the “Diminution in consumption of O2: in time” value came to 60 min and the “Diminution in the cardiac effort” value amounted to 30 min. Besides, the inhibition in vivo at 4.6 mg/kg with anaesthetized dog (Canis lupus familiaris, iv, 4.6 mg/kg i.v. slow perfusion, read-out: Diminution in consumption of O2) was 68%. Besides, the inhibition in vivo at 4.6 mg/kg in the data set with anaesthetized dog (Canis lupus familiaris, iv, 4.6 mg/kg i.v. slow perfusion, read-out: Diminution in the cardiac effort (IK)) is 32%.

As usually defined, the mortality is the share of the test organisms that died. For the molecule `COc1cc(/C=C/C(=O)N2CCN(CC(O)COc3cccc(NC(C)=O)c3)CC2)cc(OC)c1OC` (stereo not shown) [770 844], in “in vivo” (400 mg/kg i.v.), the mortality is 0%. Also, in the data set with anaesthetized dog (2.5 mg/kg i.v. slow perfusion), the “Diminution in consumption of O2: in time” value was determined as 23 min and the “Diminution in the cardiac effort” value is reported as 30 min. The inhibition in vivo at 2.5 mg/kg in the data set on anaesthetized dog (setting [1]) turned out to be 58%. In addition, in the data set on anaesthetized dog (setting [2]), the inhibition in vivo at 2.5 mg/kg came out at 35%.

Consider `COc1cc(/C=C/C(=O)N2CCN(CC(O)COc3ccc(C(C)=O)c4c3OCO4)CC2)cc(OC)c1OC` (stereo not shown) [780 308], for which, in “in vivo” (400 mg/kg i.v.), the mortality was determined as 10%. Further, in the data set on anaesthetized dog (2.5 mg/kg i.v. slow perfusion), the “Diminution in consumption of O2: in time” value turned out to be 45 min and the “Diminution in the cardiac effort” value was 45 min. For the same molecule, in the data set with anaesthetized dog (setting [1]), the inhibition in vivo at 2.5 mg/kg was 49%. The inhibition in vivo at 2.5 mg/kg with anaesthetized dog (setting [2]) came out at 37%.

For `COc1cc(/C=C/C(=O)N2CCN(CC(O)CSc3ccccc3)CC2)cc(OC)c1OC` (stereo not shown) [770 060], the LD50 in the data set “in vivo” came to 195 mg/kg. For the same molecule, in the data set with anaesthetized dog (2.3 mg/kg i.v. slow perfusion), the “Diminution in consumption of O2: in time” value came to 23 min and the “Diminution in the cardiac effort” value was 30 min. For the same molecule, in the data set with anaesthetized dog (setting [3]), the inhibition in vivo at 2.3 mg/kg is 58%. Besides, the inhibition in vivo at 2.3 mg/kg in the data set with anaesthetized dog (setting [4]) came to 35%.

Turning to `COc1cc(/C=C/C(=O)N2CCN(CC(O)COc3ccc(NC(C)=O)c4c3OCCO4)CC2)cc(OC)c1OC` (stereo not shown) [760 868], the mortality in “in vivo” (215 mg/kg i.v.) is 40%. For the same molecule, in the data set with anaesthetized dog (0.12 mg/kg i.v. slow perfusion), the “Diminution in consumption of O2: in time” value stood at 30 min and the “Diminution in the cardiac effort” value was 30 min. Besides, the inhibition in vivo at 0.12 mg/kg in the data set on anaesthetized dog (Canis lupus familiaris, iv, 0.12 mg/kg i.v. slow perfusion, read-out: Diminution in consumption of O2) turned out to be 33%. Moreover, the inhibition in vivo at 0.12 mg/kg in the data set on anaesthetized dog (Canis lupus familiaris, iv, 0.12 mg/kg i.v. slow perfusion, read-out: Diminution in the cardiac effort (IK)) stood at 18%.

As for `CCc1ccc(OCC(O)CN2CCN(C(=O)/C=C/c3cc(OC)c(OC)c(OC)c3)CC2)c2c1OCCO2` (stereo not shown) [770 142], the LD50 in the data set “in vivo” turned out to be 116 mg/kg. Also, in the data set with anaesthetized dog (1.1 mg/kg i.v. slow perfusion), the “Diminution in consumption of O2: in time” value is 30 min. For the same molecule, in the data set with anaesthetized dog (Canis lupus familiaris, iv, 1.1 mg/kg i.v. slow perfusion, read-out: Diminution in consumption of O2), the inhibition in vivo at 1.1 mg/kg turned out to be 29%.

For `COc1cc(/C=C/C(=O)N2CCN(CC(O)COc3ccc4c(c3)OCO4)CC2)cc(OC)c1OC` (stereo not shown) [760 529], the LD50 in “in vivo” is 115 mg/kg. For the same molecule, in the data set on anaesthetized dog (2.3 mg/kg i.v. slow perfusion), the “Diminution in consumption of O2: in time” value stood at 30 min and the “Diminution in the cardiac effort” value worked out at 15 min. Further, the inhibition in vivo at 2.3 mg/kg in the data set with anaesthetized dog (setting [3]) stood at 53%. The inhibition in vivo at 2.3 mg/kg in the data set on anaesthetized dog (setting [4]) was 19%.

As for `COc1cc(/C=C/C(=O)N2CCN(CC(O)COc3c(OC)cccc3OC)CC2)cc(OC)c1OC` (stereo not shown) [760 580], the median lethal dose (LD50) in the data set “in vivo” worked out at 294 mg/kg. Further, in the data set on anaesthetized dog (2.3 mg/kg i.v. slow perfusion), the “Diminution in consumption of O2: in time” value stood at 30 min and the “Diminution in the cardiac effort” value worked out at 15 min. For the same molecule, the inhibition in vivo at 2.3 mg/kg in the data set on anaesthetized dog (setting [3]) was 19%. Further, the inhibition in vivo at 2.3 mg/kg with anaesthetized dog (setting [4]) was 26%.

Regarding `COc1cc(/C=C/C(=O)N2CCN(CC(O)COc3ccccc3F)CC2)cc(OC)c1OC` (stereo not shown) [760 619], in “in vivo”, the 50% lethal dose (LD50) was found to be 158 mg/kg. Moreover, in the data set on anaesthetized dog (2.3 mg/kg i.v. slow perfusion), the “Diminution in consumption of O2: in time” value is 30 min and the “Diminution in the cardiac effort” value stood at 30 min. In the data set with anaesthetized dog (setting [3]), the inhibition in vivo at 2.3 mg/kg came to 55%. In the data set with anaesthetized dog (setting [4]), the inhibition in vivo at 2.3 mg/kg was 44%.

As to `CNC(=O)Nc1ccc(OCCCN2CCN(C(=O)/C=C/c3cc(OC)c(OC)c(OC)c3)CC2)c2c1OCCO2` [780 040], in the data set “in vivo” (400 mg/kg i.v.), the mortality worked out at 30%. In addition, in the data set with anaesthetized dog (2.5 mg/kg i.v. slow perfusion), the “Diminution in consumption of O2: in time” value is recorded as 15 min. For the same molecule, the inhibition in vivo at 2.5 mg/kg amounted to 59% in the data set on anaesthetized dog (setting [1]) and 9% with anaesthetized dog (setting [2]).
